From patent US9844546B2, “Antibody against human HIF hydroxylase” (OXFORD UNIVERSITY INNOVATION LIMITED, priority 2001, dated 2017)
Like-named read-outs stand apart in the source and are kept apart here. *1 amine or outer side, *2 acyl side, *3 side chain or, on linkers, in order; H or OH if unused. Where a SMILES comes first, the peptide text is derived from it. Bridges are numbered along the chain shown (N, C = ends). Roman numbers before positions name the chains, in order. [ ]: non-standard residue; d: D form. Actinocin(9to1) = Cc1c2oc3c(C)ccc(C(=O)[*:1])c3nc-2c(C(=O)[*:2])c(N)c1=O; NMeV = CN[C@H](C(=O)O)C(C)C; Sar = CNCC(=O)O

What was measured:
[1] = system: rat SM-20 and human EGLN1 (PHD2), EGLN2 (PHD1), EGLN3 (PHD3); experiment: Recombinant enzymes (reticulocyte IVTT) promoting pVHL interaction with HIF-1α residues 549-582; format: biochemical; conditions: all enzymes
Procedure: To test the role of these gene products in regulating the interaction between human HIFα sub-units and the VHL E3 ligase complex, we first produced the proteins by reticulocyte IVTT. […] After incubation with relevant enzyme, HIF-α substrates were mixed with extracts from 786-0/VHL cells that stably express HA tagged human pVHL, and tested for interaction by anti-HA immunoprecipitation.

[2] = system: EGLN-2 and EGLN-3; experiment: Modification and pVHL binding assay with reticulocyte lysate programmed with EGLN-2 or EGLN-3; format: biochemical, human; conditions: desferrioxamine 200 μM, cobaltous chloride 200 μM
Source text: Protein containing HIF-1 sequence (amino acids 549-582) was generated in a reticulocyte in vitro transcription translation reaction in the presence of 100 micromolar desferrioxamine, retrieved and then exposed to […] translates containing the putative enzymes as described above. These proteins contain the critical proline (564) which can be modified by hydroxylation and which enables recognition by von Hippel Lindau tumour suppressor protein (pVHL).
The modification of the HIF-1 sequence was assayed by the binding of the HIF-1 to radiolabelled pVHL, generated by in vitro transcription and translation of a pcDNA3 vector containing the human wild type pVHL open reading frame in a rabbit reticulocyte lysate in the presence of ^35S-methionine.
Modification and pVHL binding assays were performed as described above. Rabbit reticulocyte lysate was programmed with pcDNA3 based plasmids containing no insert, an insert encoding the full open reading frame of the human homologue of C. elegans Egl-9 known as EGLN-2, or an insert encoding the full open reading frame of the human homologue known as EGLN-3. Modification was performed in the absence of additives, in the presence of oxalylglycine, oxalylglycine plus 2-oxoglutarate, 200 μM desferrioxamine or 200 μM cobaltous chloride.

[3] = system: EGL-9; experiment: Recombinant EGL-9 modification of HIF-1, HA.VHL-1 capture; format: biochemical, C. elegans
Procedure: Preincubation of C. elegans HIF-1 with worm extract or recombinant EGL-9 was for 30 min at 25° C. Preincubation of mammalian HIF-α polypeptides with cell extract or recombinant enzymes was at 37° C. for 10-30 min unless otherwise stated. For assays of recombinant enzymes, 2-oxoglutarate (2 mM), iron (100 μM), and ascorbate (2 mM) were added to the reaction buffer unless otherwise indicated. Reactions performed in hypoxia were in the stated atmospheric oxygen concentration (balance nitrogen) obtained using a controlled environment Invivo2 400 hypoxia work-station (Ruskinn Technologies) and buffers pre-equilibrated with the appropriate atmosphere. Reactions (50 μl) were performed in open Eppendorf tubes with mixing and stopped by the addition of 20 volumes desferrioxamine (100 μM}.
To test whether EGL-9 could act directly on HIF-1, further preparations were made by baculoviral expression in insect cells and by expression as maltose binding protein ([…]) fusion proteins in E. coli. Since full length MBP/EGL-9 protein was insoluble when expressed in E. coli we prepared an N-terminal truncation containing residues 359-723 (MBP/ΔN.EGL-9) that preserved the predicted catalytic domain and had HIF.1 modifying activity when expressed as an IVTT. […]

[4] = system: HIF-α/pVHL interaction; experiment: Interaction of HIF-1α and pVHL.HA reticulocyte IVTTs, anti-HA co-immunoprecipitation; format: biochemical, human; conditions: 100 μM added to the HIF-1α IVTT
Procedure: ^35S-Methionine labelled […] subunits and pVHL.HA were produced separately by IVTT (in vitro transcription and translation) in reticulocyte lysates. IVTTs were performed under different conditions, mixed, and assayed for interaction by anti-HA co-immunoprecipitation. These in vitro assays allowed analysis of the HIFα/pVHL interaction using the recombinant proteins.
Labelled HIF-1α and pVHL.HA were generated separately in reticulocyte lysates (IVTT), in the presence or absence of Co (II), desferrioxamine, or Fe(II). Lysates were mixed in various combinations, and interactions assayed by anti-HA immunoprecipitation.
• 1. G. L. Semenza, Genes Dev 14, 1983-91. (2000). • 2. N. V. Iyer, et al., Genes Dev. 12, 149-162 (1997). • 3. E. Maltepe, J. V. Schmidt, D. Baunoch, C. A. Bradfield, M. C. Simon, Nature 386, 403-407 (1997). • 4. G. L. Wang, B.-H. Jiang, E. A. Rue, G. L. Semenza, Proc. Natl. Acad. Sci. USA 92, 5510-5514 (1995). • 5. S. Salceda, J. Caro, J. Biol. Chem. 272, 22642-22647 (1997). • 6. L. E. Huang, J. Gu, M. Schau, H. F. Bunn, Proc. Natl. Acad. Sci. USA 95, 7987-7992 (1998). • 7. M. S. Wiesener, et al., Blood 92, 2260-2268 (1998). • 8. P. H. Maxwell, et al., Nature 399, 271-275 (1999). • 9. K. Iwai, et al., Proc. Natl. Acad. Sci. USA 96, 12436-12441 (1999). • 10. J. Lisztwan, G. Imbert, C. Wirbelauer, M. Gstaiger, W. Krek, Genes Dev 13, 1822-33 (1999). • 11. M. E. Cockman, et al., J Biol Chem (2000). • 12. M. Ohh, et al., Nat Cell Biol 2, 423-7. (2000). • 13. T. Kamura, et al., Proc Natl Acad Sci USA 97, 10430-5. (2000). • 14. K. Tanimoto, Y. Makino, T. Pereira, L. Poellinger, Embo J 19, 4298-309. (2000). • 15. M. A. Goldberg, S. P. Dunning, H. F. Bunn, Science 242, 1412-1415 (1988). • 16. G. L. Wang, G. L. Semenza, Blood 82, 3610-3615 (1993). • 17. G. L. Semenza, Cell 98, 281-284 (1999). • 18. Hypoxia (<0.1% oxygen) was obtained in a workstation with O2, CO2 and temperature control (Ruskinn Technologies, Leeds, UK). For hypoxic harvest, buffers were preincubated in the chamber overnight. […]

[5] = system: intact cells; experiment: Entry into intact cells; format: cell-based
Source text: In this Example it is shown that HIF-1α protein and the endogenous HIF target gene encoding carbonic anhydrase 9 (CA-9) are induced by exposure of cells to the PHD inhibitor, dimethyl oxalylglycine. […] The esterified form, dimethyloxalylglycine, has therefore been used to deliver the compound to tissue culture cells.
Application of an esterified form, dimethyloxalylglycine, to tissue culture cells results in stabilisation of HIF alpha chains (Example 1) and activation of transcription of endogenous HIF target genes (Example 5).

[6] = system: HIF hydroxylase (HPH activity); experiment: HIF hydroxylase (HPH) inhibition, statements of the description; format: biochemical
[7] = system: HIF-α prolyl-hydroxylase (HIF-PH) of cell extract; experiment: Modifying activity (HIF-PH) of cell extract on HIF substrate (Gal/HIF-1α549-582/VP16 or 19:WT), pVHL capture assay; format: biochemical, mammalian
How it was run: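 Immunopurified HIF-1α substrate (19:WT polypeptide or Gal/HIF-1α549-582/VP16) on beads was incubated with cell extract under test conditions, washed, and tested for capture of 35S-labelled IVTT pVHL, visualised by fluorography. Hydroxylation activity was inferred from pVHL capture.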

[8] = system: collagen prolyl-hydroxylase (CPH); conditions: cited from earlier work
[9] = system: HeLa cells; experiment: Hypoxic induction of total HIF-PH activity in HeLa cell lysates, pVHL capture assay; format: cell-based, human; conditions: hypoxia 16 hours

SMILES | inhibition of enzyme activity promoting pVHL interaction with HIF-1α 549-582 [1] | Enzyme activity (modification of HIF-1 to VHL binding form) [2] | effect on recombinant EGL-9 activity [3] | capture of HIF-1α by pVHL.HA [4] | ability to enter intact cells [5] | inhibition of HIF hydroxylase / HPH [6] | inhibition of HIF hydroxylase / HPH ([6]; listed as N-oxaloglycine) | Inhibition of pVHL capture ([7]; 0-2000 μM inhibitor, RCC4 cell extract, 5 or 100 μM FeCl2) | inhibition of modifying activity of cell extract on 19:WT (pVHL capture) ([7]; N-oxalylglycine 0.2-1 mM, overcome by 5 mM 2-oxoglutarate) | inhibition of CPH [8] | effect on induction of total HIF-PH activity by hypoxia [9]
[Cl-].[Cl-].[Co+2] [Co(II), cobaltous chloride] | strongly inhibited | diminished | direct inhibition | greatly diminished capture |  |  |  |  |  |  | 
O=C(O)CNC(=O)C(=O)O [N-oxalylglycine] | strongly inhibited | diminished |  |  | incapable of entering intact cells | act as inhibitors | inhibitor | increased with the concentration of inhibitor | completely inhibit | inhibitor | 
Cc1c2oc3c(C)ccc(C(=O)N[C@@H]4C(=O)N[C@H](C(C)C)C(=O)N5CCC[C@H]5C(=O)N(C)CC(=O)N(C)[C@@H](C(C)C)C(=O)O[C@@H]4C)c3nc-2c(C(=O)N[C@@H]2C(=O)N[C@H](C(C)C)C(=O)N3CCC[C@H]3C(=O)N(C)CC(=O)N(C)[C@@H](C(C)C)C(=O)O[C@@H]2C)c(N)c1=O [actinomycin D] (I: T[dV]P[Sar][NMeV] / II: T[dV]P[Sar][NMeV]; ester I:1-I:C, II:1-II:C; linker I:N-II:N via Actinocin(9to1)) |  |  |  |  |  |  |  |  |  |  | blocked
